Measured values: the supplement of paper PMC10307832

Key:
Assay in all cases: relative viability (nuclei count vs DMSO), 5 days (fraction); higher = more cells survive
FG-4592 + Dasatinib = compound: Cc1nc(C(=O)NCC(=O)O)c(O)c2ccc(Oc3ccccc3)cc12 [FG-4592] + Cc1nc(Nc2ncc(C(=O)Nc3c(C)cccc3Cl)s2)cc(N2CCN(CCO)CC2)n1 [Dasatinib] (partner 0.075 µM)
Summary of the method: (§1)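 Nuclei were stained with Hoechst during a one-step fixation (final 0.05% Triton X-100, 1% formaldehyde, 1 ug/ml Hoechst) carried out 5 days after dosing, then counted on 4× images. The cells, lung cancer lines in 1536-well plates, had been dosed by pin tool the day after seeding with one drug alone or a fixed anchor-drug dose plus five library-drug doses (not always all listed) in √10 steps. Relative viability is the nuclei count in treated wells divided by that in vehicle wells, and each value is the median of duplicate plates.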

FG-4592 + Luminespib = compound: Cc1nc(C(=O)NCC(=O)O)c(O)c2ccc(Oc3ccccc3)cc12 [FG-4592] + CCNC(=O)c1noc(-c2cc(C(C)C)c(O)cc2O)c1-c1ccc(CN2CCOCC2)cc1 [Luminespib] (partner 0.01 µM)
Summary of the method: as §1

IU1-47 + Bortezomib = compound: CC1=CC(=C(N1C2=CC=C(C=C2)Cl)C)C(=O)CN3CCCCC3 [IU1-47] + CC(C)C[C@H](NC(=O)[C@H](Cc1ccccc1)NC(=O)c1cnccn1)B(O)O [Bortezomib] (partner 0.002 µM)
Summary of the method: as §1

IU1-47 + Decitabine = compound: CC1=CC(=C(N1C2=CC=C(C=C2)Cl)C)C(=O)CN3CCCCC3 [IU1-47] + Nc1ncn([C@H]2C[C@H](O)[C@@H](CO)O2)c(=O)n1 [Decitabine] (partner 2 µM)
Summary of the method: as §1

NCI-H2087
relative viability (FG-4592 + Dasatinib; first compound 0.08 µM): 0.793
relative viability (FG-4592 + Dasatinib; first compound 0.253 µM): 0.864
relative viability (FG-4592 + Dasatinib; first compound 0.8 µM): 0.862
relative viability (FG-4592 + Dasatinib; first compound 2.53 µM): 0.861
relative viability (FG-4592 + Dasatinib; first compound 8 µM): 0.757
relative viability (FG-4592 + Luminespib; first compound 0.08 µM): 0.196
relative viability (FG-4592 + Luminespib; first compound 0.253 µM): 0.151
relative viability (FG-4592 + Luminespib; first compound 0.8 µM): 0.142
relative viability (FG-4592 + Luminespib; first compound 2.53 µM): 0.151
relative viability (FG-4592 + Luminespib; first compound 8 µM): 0.148
relative viability (IU1-47 + Bortezomib; first compound 0.08 µM): 1.12
relative viability (IU1-47 + Bortezomib; first compound 0.253 µM): 0.978
relative viability (IU1-47 + Bortezomib; first compound 0.8 µM): 0.93
relative viability (IU1-47 + Bortezomib; first compound 2.53 µM): 0.914
relative viability (IU1-47 + Bortezomib; first compound 8 µM): 0.616
relative viability (IU1-47 + Decitabine; first compound 0.08 µM): 0.317
relative viability (IU1-47 + Decitabine; first compound 0.253 µM): 0.256
relative viability (IU1-47 + Decitabine; first compound 0.8 µM): 0.311
relative viability (IU1-47 + Decitabine; first compound 2.53 µM): 0.228
relative viability (IU1-47 + Decitabine; first compound 8 µM): 0.23

NCI-H2126
relative viability (FG-4592 + Dasatinib; first compound 0.08 µM): 0.642
relative viability (FG-4592 + Dasatinib; first compound 0.253 µM): 0.578
relative viability (FG-4592 + Dasatinib; first compound 0.8 µM): 0.476
relative viability (FG-4592 + Dasatinib; first compound 2.53 µM): 0.506
relative viability (FG-4592 + Dasatinib; first compound 8 µM): 0.384
relative viability (FG-4592 + Luminespib; first compound 0.08 µM): 0.918
relative viability (FG-4592 + Luminespib; first compound 0.253 µM): 0.904
relative viability (FG-4592 + Luminespib; first compound 0.8 µM): 0.887
relative viability (FG-4592 + Luminespib; first compound 2.53 µM): 0.759
relative viability (FG-4592 + Luminespib; first compound 8 µM): 0.603
relative viability (IU1-47 + Bortezomib; first compound 0.08 µM): 1.17
relative viability (IU1-47 + Bortezomib; first compound 0.253 µM): 1.18
relative viability (IU1-47 + Bortezomib; first compound 0.8 µM): 1.19
relative viability (IU1-47 + Bortezomib; first compound 2.53 µM): 0.894
relative viability (IU1-47 + Bortezomib; first compound 8 µM): 1.04
relative viability (IU1-47 + Decitabine; first compound 0.08 µM): 0.564
relative viability (IU1-47 + Decitabine; first compound 0.253 µM): 0.584
relative viability (IU1-47 + Decitabine; first compound 0.8 µM): 0.599
relative viability (IU1-47 + Decitabine; first compound 2.53 µM): 0.544
relative viability (IU1-47 + Decitabine; first compound 8 µM): 0.583

NCI-H2347
relative viability (FG-4592 + Dasatinib; first compound 0.08 µM): 0.323
relative viability (FG-4592 + Dasatinib; first compound 0.8 µM): 0.263
relative viability (FG-4592 + Dasatinib; first compound 2.53 µM): 0.284
relative viability (FG-4592 + Dasatinib; first compound 8 µM): 0.279
relative viability (FG-4592 + Luminespib; first compound 0.08 µM): 0.4
relative viability (FG-4592 + Luminespib; first compound 0.8 µM): 0.258
relative viability (FG-4592 + Luminespib; first compound 2.53 µM): 0.323
relative viability (FG-4592 + Luminespib; first compound 8 µM): 0.293
relative viability (IU1-47 + Bortezomib; first compound 0.08 µM): 0.913
relative viability (IU1-47 + Bortezomib; first compound 0.253 µM): 0.76
relative viability (IU1-47 + Bortezomib; first compound 0.8 µM): 0.892
relative viability (IU1-47 + Bortezomib; first compound 2.53 µM): 0.827
relative viability (IU1-47 + Bortezomib; first compound 8 µM): 0.746
relative viability (IU1-47 + Decitabine; first compound 0.08 µM): 0.662
relative viability (IU1-47 + Decitabine; first compound 0.253 µM): 0.663
relative viability (IU1-47 + Decitabine; first compound 0.8 µM): 0.609
relative viability (IU1-47 + Decitabine; first compound 2.53 µM): 0.615
relative viability (IU1-47 + Decitabine; first compound 8 µM): 0.581

NCI-H2405
relative viability (FG-4592 + Dasatinib; first compound 0.08 µM): 0.218
relative viability (FG-4592 + Dasatinib; first compound 0.8 µM): 0.231
relative viability (FG-4592 + Dasatinib; first compound 2.53 µM): 0.184
relative viability (FG-4592 + Dasatinib; first compound 8 µM): 0.204
relative viability (FG-4592 + Luminespib; first compound 0.08 µM): 0.577
relative viability (FG-4592 + Luminespib; first compound 0.8 µM): 0.675
relative viability (FG-4592 + Luminespib; first compound 2.53 µM): 0.691
relative viability (FG-4592 + Luminespib; first compound 8 µM): 0.658
relative viability (IU1-47 + Bortezomib; first compound 0.08 µM): 1.05
relative viability (IU1-47 + Bortezomib; first compound 0.253 µM): 0.876
relative viability (IU1-47 + Bortezomib; first compound 0.8 µM): 1.07
relative viability (IU1-47 + Bortezomib; first compound 2.53 µM): 0.894
relative viability (IU1-47 + Bortezomib; first compound 8 µM): 0.994
relative viability (IU1-47 + Decitabine; first compound 0.08 µM): 0.839
relative viability (IU1-47 + Decitabine; first compound 0.253 µM): 0.762
relative viability (IU1-47 + Decitabine; first compound 0.8 µM): 0.769
relative viability (IU1-47 + Decitabine; first compound 2.53 µM): 0.779
relative viability (IU1-47 + Decitabine; first compound 8 µM): 0.765

NCI-H3122
relative viability (FG-4592 + Dasatinib; first compound 0.08 µM): 0.737
relative viability (FG-4592 + Dasatinib; first compound 0.253 µM): 0.824
relative viability (FG-4592 + Dasatinib; first compound 0.8 µM): 0.877
relative viability (FG-4592 + Dasatinib; first compound 2.53 µM): 0.983
relative viability (FG-4592 + Dasatinib; first compound 8 µM): 0.563
relative viability (FG-4592 + Luminespib; first compound 0.08 µM): 0.079
relative viability (FG-4592 + Luminespib; first compound 0.253 µM): 0.108
relative viability (FG-4592 + Luminespib; first compound 0.8 µM): 0.0631
relative viability (FG-4592 + Luminespib; first compound 2.53 µM): 0.092
relative viability (FG-4592 + Luminespib; first compound 8 µM): 0.0857
relative viability (IU1-47 + Bortezomib; first compound 0.08 µM): 0.962
relative viability (IU1-47 + Bortezomib; first compound 0.253 µM): 1.02
relative viability (IU1-47 + Bortezomib; first compound 0.8 µM): 1.08
relative viability (IU1-47 + Bortezomib; first compound 2.53 µM): 1.09
relative viability (IU1-47 + Bortezomib; first compound 8 µM): 0.996
relative viability (IU1-47 + Decitabine; first compound 0.08 µM): 0.416
relative viability (IU1-47 + Decitabine; first compound 0.253 µM): 0.402
relative viability (IU1-47 + Decitabine; first compound 0.8 µM): 0.517
relative viability (IU1-47 + Decitabine; first compound 2.53 µM): 0.491
relative viability (IU1-47 + Decitabine; first compound 8 µM): 0.449
